# Test results from patent publication US7642245B2, “Antibacterial compounds having a (pyrrole carboxamide)-(benzamide)-(imidazole carboxamide) motif” (Oscient Pharmaceuticals Corporation, priority 2002, dated 2010).
# Assays:
# S. aureus ATCC 13709 = assay: MIC, NCCLS broth microdilution; type: cell-based, Staphylococcus aureus; conditions: A = S. aureus ATCC 13709 (MSSA)
# Source text: (§1) In vitro biological activity data were collected for a variety of microorganisms, including Staphylococcus aureus (ATCC 27660, a methicillin resistant strain (MRSA); ATCC 13709, a methicillin sensitive strain (MSSA)), Enterococcus faecalis (ATCC 29212), Bacillus cereus (ATCC 11778), Streptococcus pneumoniae (ATCC 49619), Candida albicans (ATCC 38247), Escherichia coli (ATCC 25922), and Moraxella (now Branhamella) catarrhalis (ATCC 25238).
# (§2) The minimal inhibition concentration (MIC) of these compounds was determined using the National Committee for Clinical Laboratory Standards (NCCLS) broth microdilution assay in microtiter plates, as set forth in: (1) the guidelines of the National Committee for Clinical Laboratory Standards (NCCLS) Document M7-A4 (NCCLS, 1997); (2) the guidelines of the National Committee for Clinical Laboratory Standards (NCCLS) Document M11-A4 (NCCLS, 1997); and (3) the guidelines and reference method of the National Committee for Clinical Laboratory Standards (NCCLS) Document M27-T (NCCLS, 1995). For antifungal assays, the method recommended in Murray, P R., 1995 Manual of Clinical Microbiology (ASM Press, Washington, DC.), was employed.
# S. aureus ATCC 27660 = assay: MIC, NCCLS broth microdilution; type: cell-based, Staphylococcus aureus; conditions: B = S. aureus ATCC 27660 (MRSA)
# Source text: as §1, §2
# E. faecalis ATCC 29212 = assay: MIC, NCCLS broth microdilution; type: cell-based, Enterococcus faecalis; conditions: C = E. faecalis ATCC 29212
# Source text: as §1, §2
# B. cereus ATCC 11778 = assay: MIC, NCCLS broth microdilution; type: cell-based, Bacillus cereus; conditions: D = B. cereus ATCC 11778
# Source text: as §1, §2
# S. pneumoniae ATCC 49619 = assay: MIC, NCCLS broth microdilution; type: cell-based, Streptococcus pneumoniae; conditions: E = S. pneumoniae ATCC 49619
# Source text: as §1, §2
# C. albicans ATCC 38247 = assay: MIC, antifungal assay; type: cell-based, Candida albicans; conditions: F = C. albicans ATCC 38247
# Source text: as §1, §2
# E. coli ATCC 25922 = assay: MIC, NCCLS broth microdilution; type: cell-based, Escherichia coli; conditions: G = E. coli ATCC 25922
# Source text: as §1, §2
# [1] = system: M. catarrhalis (ATCC 25238); assay: MIC, NCCLS broth microdilution; type: cell-based, Moraxella (now Branhamella) catarrhalis; conditions: H = M. catarrhalis (ATCC 25238)
# Source text: as §1, §2
SMILES,Minimum Inhibitory Concentration (MIC) (S. aureus ATCC 13709),Minimum Inhibitory Concentration (MIC) (S. aureus ATCC 27660),Minimum Inhibitory Concentration (MIC) (E. faecalis ATCC 29212),Minimum Inhibitory Concentration (MIC) (B. cereus ATCC 11778),Minimum Inhibitory Concentration (MIC) (S. pneumoniae ATCC 49619),Minimum Inhibitory Concentration (MIC) (C. albicans ATCC 38247),Minimum Inhibitory Concentration (MIC) (E. coli ATCC 25922),Minimum Inhibitory Concentration (MIC) [1]
Cn1cc(NC(=O)c2nccc3ccccc23)cc1C(=O)Nc1ccc(C(=O)Nc2cn(C)c(C(=O)NCCN3CCC(O)CC3)n2)cc1 [Compound A-5],+++ (MIC ≦ 4 μg/mL),+++ (MIC ≦ 4 μg/mL),+++ (MIC ≦ 4 μg/mL),+++ (MIC ≦ 4 μg/mL),+++ (MIC ≦ 4 μg/mL),>32 µg/mL,>32 µg/mL,>32 µg/mL
Cn1cc(NC(=O)c2cc3cc4c(cc3cn2)OCO4)cc1C(=O)Nc1ccc(C(=O)Nc2cn(C)c(C(=O)NCCN3CCC(O)CC3)n2)cc1 [Compound A-6],+++ (MIC ≦ 4 μg/mL),+++ (MIC ≦ 4 μg/mL),+++ (MIC ≦ 4 μg/mL),+++ (MIC ≦ 4 μg/mL),+++ (MIC ≦ 4 μg/mL),+ (12 ≦ MIC ≦ 32 μg/mL),+ (12 ≦ MIC ≦ 32 μg/mL),++ (4 < MIC < 12 μg/mL)
Cn1cc(NC(=O)c2cc3c([N+](=O)[O-])cccc3cn2)cc1C(=O)Nc1ccc(C(=O)Nc2cn(C)c(C(=O)NCCN3CCC(O)CC3)n2)cc1 [Compound A-7],+++ (MIC ≦ 4 μg/mL),+++ (MIC ≦ 4 μg/mL),+++ (MIC ≦ 4 μg/mL),+++ (MIC ≦ 4 μg/mL),+++ (MIC ≦ 4 μg/mL),>32 µg/mL,>32 µg/mL,+ (12 ≦ MIC ≦ 32 μg/mL)
Cn1cc(NC(=O)c2cc3c(N)cccc3cn2)cc1C(=O)Nc1ccc(C(=O)Nc2cn(C)c(C(=O)NCCN3CCC(O)CC3)n2)cc1 [Compound A-8],+++ (MIC ≦ 4 μg/mL),+++ (MIC ≦ 4 μg/mL),+++ (MIC ≦ 4 μg/mL),+++ (MIC ≦ 4 μg/mL),+++ (MIC ≦ 4 μg/mL),++ (4 < MIC < 12 μg/mL),++ (4 < MIC < 12 μg/mL),++ (4 < MIC < 12 μg/mL)
Cn1cc(NC(=O)c2cc3c(Cl)cccc3cn2)cc1C(=O)Nc1ccc(C(=O)Nc2cn(C)c(C(=O)NCCN3CCC(O)CC3)n2)cc1 [Compound A-9],+++ (MIC ≦ 4 μg/mL),+++ (MIC ≦ 4 μg/mL),+++ (MIC ≦ 4 μg/mL),+++ (MIC ≦ 4 μg/mL),+++ (MIC ≦ 4 μg/mL),++ (4 < MIC < 12 μg/mL),++ (4 < MIC < 12 μg/mL),+ (12 ≦ MIC ≦ 32 μg/mL)
Cn1cc(NC(=O)c2cc3ccccc3cn2)cc1C(=O)Nc1ccc(C(=O)Nc2cn(C)c(C(=O)NCCN3CCOCC3)n2)cc1 [Compound A-10],+++ (MIC ≦ 4 μg/mL),+++ (MIC ≦ 4 μg/mL),+++ (MIC ≦ 4 μg/mL),+++ (MIC ≦ 4 μg/mL),+++ (MIC ≦ 4 μg/mL),>32 µg/mL,>32 µg/mL,+++ (MIC ≦ 4 μg/mL)
